From US6093723A, “4-substituted beta-carbolines and analogs thereof” (Boehringer Ingelheim Pharmaceuticals, Inc., priority 1997, dated 2000) come the findings set out here.

One may read the IC50 as the concentration that inhibits the measured activity by half.

SMILES strings stand for the structures.

For test [1], the system named is allogeneic cell transplant response (T-cell-mediated immune response, popliteal lymph node). As to the kind of experiment: Allogeneic cell transplant response in mice (popliteal lymph node weight). The following applies: dosed one hour prior to cell injection and daily thereafter, ~four days. The class given is in vivo, mice (DBA donors, C57B1/6 recipients). The text has this:
Allogeneic Cell Transplant Response in Mice
The ability of cells to recognize other cells from self or from another genetically different individual (non-self) is an important property in maintaining the integrity of tissue and organ structure. The allogeneic cell transplant response is therefore an important model for studies of transplant rejection. This T-cell-mediated immune response can be induced in adult mice by the injection of lymphocytes from an histoincompatible mouse strain. This response is characterized by T cell proliferation which is limited to the popliteal lymph node that receives drainage from the footpad area. No in vitro system exists that can exactly duplicate completely this in vivo response. The assay is commonly used to evaluate new and novel potential immunosuppressive molecules.
Experiments are conducted using male or female mice (20-26 grams). Any histoincompatible mouse strains suffice for donor and recipient populations. Typically DBA mice are used as donors and C57B1/6 mice are used as recipients. A minimum of 1 week stabilization and conditioning period is usually required before use of the mice. Each study utilizes approximately 36 recipient mice divided into groups of 6.
Donor mice are sacrificed by CO2 asphyxiation and spleens are removed and a cell suspension is prepared. The cell suspension (1.0×10^7/metatarsal in 0.05 ml) is injected I.D. into the dorsal metatarsal skin of recipient mice. Four days later, the animals are sacrificed by CO2 asphyxiation and the popliteal nodes are removed and weighed. Groups of mice receiving putative immunosuppressive agents are dosed subcutaneously,intraperitoneally or orally one hour prior to cell injection and daily thereafter. The tests last approximately four days. The assay involves no footpad swelling and only a moderate increase in the size of the popliteal lymph node. Student's t test is used to determine significant differences between popliteal lymph nodes of groups of untreated mice and those mice treated with putative immunosuppressive agents.

Test [2] concerns IL-2 production in T lymphocytes (CD3+/CD4+ cells). The experiment in a line: IL-2 production assay, Protocol B (antiCD3/antiCD28 as stimuli). The conditions noted are these: T-lymphocyte; human T lymphocytes, anti-CD3/anti-CD28 and goat anti-mouse coated beads, 16 hour. The class given is cell-based. The procedure:
Protocol B (antiCD3/antiCD28 as stimuli)
Human peripheral blood is obtained from healthy donors by venipuncture and the mononuclear cell fraction is prepared by centrifugation on Ficoll Hypaque (Phamacia) density gradients. Contaminating red blood cells are lysed and the CD3+/CD4+ cells are purified using immunoaffinity columns (R&D Systems or CellPro). The T lymphocytes are plated at 1-1.5×10^5 cells/well in a 96 well microtiter plate, and incubated with serial dilutions of compounds for 20 minutes at 37° C. The T cells are activated by the addition of 0.6 ng/ml anti-CD3 (Immunotech), 500 ng/ml anti-CD28 (Biodesign) and 2×10^5 goat anti-mouse coated beads (Dynal). The final volume of the assay is 200 μl. Following a 16 hour incubation at 37° C., the cells are pelleted, and the supernatants are removed and collected and stored at -70° C. until assayed for interleukin-2 using a commercial ELISA kit (R&D Systems).

In test [3] the test system is Ca^+2 influx in Jurkat cells (clone E6-1). The experiment in a line: Calcium influx assay (thapsigargin-stimulated, Fluo-3). The conditions noted are these: Homo sapiens; Jurkat cells clone E6-1, thapsigargin 100 nM, 10 min preincubation. The class given is cell-based. The method, then:
Jurkat cells (clone E6-1) are pelleted by centrifugation, washed twice, and resuspended in RPMI 1640 containing, […], 1 % fetal calf serum, 3 μM Fluo-3-AM, 13.5 μl/ml Pluronic F 127 (Molecular Probes) and incubated for 1 hour at 37° C. The loaded cells are washed twice in Hanks Balanced Salt Solution containing 10 mM HEPES. The cells are resuspended in HBSS containing 10 mM HEPES, and dispensed into 96-well Dynatech black microtiter plates at 2×10^5 cells/well. The cells are preincubated with compounds for 10 minutes at room temperature. Baseline fluorescence of unstimulated cells is measured using an SLT fluorescent microtiter plate reader with an excitation wavelength of 495 nm and emission wavelength of 538 nm. Thapsigargin is then added to a final concentration of 100 nM. Following a 5 minute incubation, fluorescence of thapsigargin treated cells is measured. Delta fluorescence values are determined by subtracting baseline fluorescence values from thapsigargin induced fluorescence values.

In test [4] the test system is IL-2 promoter. The experiment in a line: IL-2 promoter assay (luciferase reporter in Jurkat cells). The class given is cell-based. The conditions noted are these: Homo sapiens; Jurkat luciferase reporter cells, ionomycin 1 μg/ml and PMA 10 ng/ml, 5 hr; read-out: IL-2 PROMOTER IC50. The text has this:
All the known regulatory features of IL-2 gene are contained within a ~300 bp sequence immediately upstream of the open reading frame. […] The resulting construct, pIL2P-luc, and a vector containing a neomycin resistance gene, pcDNA/Neo (Invitrogen), are linearized and stably transfected into Jurkat cells (a human T cell line) by electroporation.
For screening compounds, the cells are pelleted by centrifugation, washed once with PBS, resuspended in RPMI (phenol red-free) containing 5% FBS, and dispensed into 96-well, white microtiter plates (Packard) at 50,000 cells/well. The cells are pre-incubated with compounds (1 μg/ml) for 15 min prior to addition of ionomycin (1 μg/ml) and PMA (10 ng/ml) in a final volume of 100 μl. Following a 5 hr incubation at 37° C. in a humidified incubator, 100 μl of Luc-Lite lysis buffer/luciferase assay buffer (Promega) is added and luminescence measured using a Packard TopCount scintillation counter/luminometer.
For orientation: Reporter assays use an easily measured gene product as a stand-in for the process of interest.

Test [5] has as its system IL-2 production in CD3+/CD4+ cells. The experiment in a line: IL-2 production assay, Protocol A (ionomycin and PMA as stimuli). The conditions noted are these: human CD3+/CD4+ cells, ionomycin 1 μg/ml and PMA 10 ng/ml, 16 hr. Type of test: cell-based. The procedure: Protocol A (ionomycin and […] as stimuli)
Human peripheral blood is obtained from healthy donors by venipuncture and the mononuclear cell fraction is prepared by centrifugation on Ficoll Hypaque (Phamacia) density gradients. Contaminating red blood cells are lysed and the CD3+/CD4+ cells are purified using immunoaffinity columns (R&D Systems or CellPro). The cells are resuspended and dispensed in 96 well microtiter plates. Test compounds are added to the cells approximately 15 minutes prior to stimulation with ionomycin (1 μg/ml) and PMA (10 ng/ml). The final volume of the assay is 100 μL. Following a 16 hr incubation at 37° C., the cells are pelleted by centrifugation, and the supernatants are collected and stored at -70° C. until assayed for IL-2 using a commercial ELISA kit (Genzyme).

On to `FC(F)(F)c1ccc(-c2cncc3[nH]c4ccccc4c23)cc1` [Compound 4, 4-(p-Trifluoromethylphenyl)-β-carboline], for which the “ALLOGENEIC CELL TRANSPLANT %” value in test [1] (0.1 mg/kg) worked out at 38%. The IC50 in test [2] worked out at 3.4 µM; in test [3] it was 500 nM; in test [4] it was 230 nM; in test [5], 0.3 µM.
In the case of `COc1cccc(-c2cncc3[nH]c4ccccc4c23)c1` [Compound 7], the “ALLOGENEIC CELL TRANSPLANT %” value in test [1] (1 mg/kg) is 49%. For the same compound, the IC50 in test [2] stood at 9.8 µM; in test [3] it was 700 nM; in test [4] it was 3000 nM; in test [5], 5 µM.
For `CCOc1ccc(-c2cncc3[nH]c4ccccc4c23)cc1` [Compound 12], in test [1] (1 mg/kg), the “ALLOGENEIC CELL TRANSPLANT %” value was 49%. Besides, the values for the IC50 in test [2], in test [3] and in test [5] were 4.5 µM, 1200 nM and 0.3 µM, respectively.
With `COc1ccc(-c2cncc3[nH]c4ccccc4c23)cc1` [Compound 5, 4-(p-Methoxyphenyl)-β-carboline], in test [1] (1 mg/kg), the “ALLOGENEIC CELL TRANSPLANT %” value was determined as 60%. In addition, the IC50 is 4.2 µM in test [2], 300 nM in test [3], 1090 nM in test [4] and 1 µM in test [5].
With `Cc1ccc(-c2cncc3[nH]c4ccccc4c23)cc1` [Compound 1, 4-(p-Methylphenyl)-β-carboline], the “ALLOGENEIC CELL TRANSPLANT %” value in test [1] (1 mg/kg) worked out at 38%. Besides, the IC50 in test [2] was 6.2 µM; in test [3], 300 nM; in test [4], 1500 nM; in test [5], 2 µM.
